Columns and labels:
Type in all cases: cell-based, Staphylococcus aureus
[1] = test system: S. aureus MW2ΔSTP1 biofilms; assay: Biofilm formation, crystal violet stain method; conditions: 25 μM
Experimental: (§1) The ability to form biofilms by S. aureus MW2 strain in the absence and presence of Inh2-B1 was determined using the crystal violet stain method. Briefly, the assay was carried out in 24-well tissue culture plates in a final volume of 500 μl of TSB broth with or without Inh2-B1 (25 μM). The culture plates were then seeded with 1:1000 dilution of the freshly grown S. aureus cultures to late log phase (O.D600=0.8) and further incubated for 48 h. At the end of incubation, the culture medium from each well was carefully removed and stained with 1% Crystal violet for 5 min. The unbound stain was then removed by repeated washings with distilled water and air dried. The stained biofilms were then extracted and dissolved in 500 μl 100% of isopropanol. Aliquots of fully suspended biofilms (100 μl/well) in isopropanol from each well were spectrophotometrically (λ=550 nm) analyzed using a microtiter plate reader (Molecular Devices). The test samples were analyzed after subtracting the background values obtained from wells containing an only medium. All results were obtained with three independent cultures each in three wells. In another set of experiments. Inh2-B1 (25 μM) was added to the 48 h-grown established biofilms of S. aureus MW2 to determine the impact of Inh2-B1 on the preformed biofilms and its ability to disrupt or further formation of biofilms. For this, old medium was carefully removed to allow the minimal loss of the loosely attached apical part of the preformed biofilms and replace with 2 ml of fresh TSB medium with or without 25 μM Inh2-B1 inhibitor and incubated further for 48 h at 37° C. Subsequently, the biofilm formation or its disruption was quantitatively estimated as described above and statistically evaluated.

[2] = test system: S. aureus MW2 wild-type biofilms; assay: Biofilm formation, crystal violet stain method; conditions: 25 μM
Experimental: as §1

S. aureus MW2 wild-type = assay: Checkerboard titration end-point bactericidal assay (MBC), Muller-Hinton agar; conditions: agent alone
Experimental: FIGS. 15A-15B show checkerboard assays for determining bactericidal assay. Serial two-fold dilutions of 2 mM of Inh2-B1 (MW=411.58 g/mol) and (A) 3 mM ceftriaxone (MW=669.7 g/mol) were made in two separate 96-well plates in vertical (B1-B12 to H1-H2 wells) and horizontal (A2-H2 to A12-H12 wells) directions respectively. Serially diluted Inh2-B1 (100 μL) in the individual well was then mixed with the 100 μL serially diluted ceftriaxone present in the corresponding wells. The resulting various combinations of Inh2-B1 (starting from 1 mM) and ceftriaxone (starting from 1.5 mM) or cefotaxime (2.1 mM) as well as serially diluted one Inh2-B1 (B1 to H1) and ceftriaxone (A2-A12) or cefotaxime (A2-A12) were then incorporated in Muller-Hinton mini agar plates (2 mL). The agar plates were then seeded and diluted S. aureus MW2-wild-type culture equivalent to approximately 23±3 CFU. This checkerboard assay was used to determine the ideal combination of lowest concentration of Inh2-B1 and ceftriaxone that kills 99.9% of the wild-type MW2.
Since the STK1 is not essential for bacterial survival and its absence results in retardation of growth, an end-point bactericidal assay was done, employing the Checkerboard titration method followed by a time-to-kill assay using the broth dilution method. The 96-well plate-based checkerboard titration assays were performed using the fixed number of CFUs of MW2 strain, and the survival of the bacteria was measured on solid agar plates as an end-point result. […] The cut-off value to designate clinical isolates of S. aureus for antibiotics, including Ceftriaxone (TX) and Cefotaxime (CT) as susceptible, is less than 4 μg/ml (i.e., <4.8 μM of TX, and <7 μM of CT). […] CFU counts of MW2-WT grown in the presence of various concentrations of Inh2-B1 were examined over a period of 16 h. […] Similarly, it was also determined CFU counts of MW2-WT and MW2ΔSTK1 strains each grown in the absence or the presence of 50 μM of Inh2-B1 and 1.5 μM Ceftriaxone (1 μg/ml) or […] Cefotaxime (1 μg/ml) for 16 h employing the broth dilution method. […] Further, to address whether MW2 or STK1 could become refractory to a potential combined therapy, the S. aureus MW2 wild-type strain was grown in the presence of suboptimal dose of Inh2-B1 alone and combination with Ceftriaxone and Cefotaxime (25 μM Inh2-B1 and 3 μM of Ceftriaxone or 3 μM Cefotaxime) for consecutive 10 generations.
Subsequently, the susceptibility of S. aureus MW2 strain to Ceftriaxone, Cefotaxime, Inh2, and Inh2-B1 was confirmed by the CLSI recommended serial dilution method using Muller Hinton broth. Minimum bactericidal activity (MBC) was measured using Muller-Hinton agar. Changes in the MBC of Ceftriaxone/Cefotaxime in the presence of serially diluted Inh2-B1 was determined in two steps. Initial screening was carried out using the Checkerboard method using Muller-Hinton agar (FIG. 15). […] Subsequent time to kill assays were carried out using 50 μM Inh2-B1 and Ceftriaxone. Cefotaxime (1 μg/ml) in a final volume of 250 μl using a sterile 96-well (U-bottom) microtiter plate over a period of 16 h at 37° C. under constant rotation (120 rpm). Optical density and corresponding CFU counts were measured at every two-hour interval up to 8 hours with a final overnight reading at the end of incubation period. CFU counts were measured using appropriate dilution of 10 μl of properly mixed samples at each time interval.

[3] = test system: cell wall hydrolase genes in S. aureus MW2-WT; assay: qRT-PCR mRNA expression of cell wall hydrolase genes; conditions: treated MW2-WT vs untreated
Experimental: The late log phase-grown S. aureus strains MW2 wild-type, and isogenic ΔSTK1 and ΔSTP1 mutant strains, as well as S. aureus MW2 strain treated with 25 μM Inh2-B1 for 4 h, were subjected to lysostaphin treatment to obtain whole cell lysate. Total RNA from the resulting lysate was first extracted by TRIZOL™ (Invitrogen/Thermo) and treated with RNase-free DNaseI. High-quality total RNA (RIN>7.0, and 260/280 and 260/230 ratios >1.8) was then extracted by using RNA purification kit (Norgen, Canada) per manufacturer's instructions and confirmed by an Agilent 2100 Bioanalyzer (Agilent Technologies, Palo Alto, Calif.). The first-strand cDNA from the total RNA was generated, and relative mRNA concentration was quantitated using SYBR Green qRT-PCR master mix and specific primers, using a Light Cycler® 480 real-time PCR machine (Table 2). The results obtained for all samples (three biological replicates each in triplicates) were normalized to corresponding values of 16S rRNA. All results including relative fold-changes in the mRNA expression (mutant vs. wild-type or treated vs. nontreated) for individual genes were analyzed using Exor4 software (Roche Applied Science). Changes in expression ratios by more than 2-fold (up- or down-regulation) were considered as significant.

COC(=O)c1ccc2c(=O)[nH]c3c(C(=O)Nc4ccccc4)sc(=S)n3c2c1 [Inh2-B1, Methyl 5-oxo-3-(phenylcarbamoyl)-1-thioxo-4,5dihydro[1,3]thiazolo[3,4-a]quinazoline-8-carboxylate]
biofilm formation in the presence of Inh2-B1 ([1]; 48 h): significantly decreased formation of biofilms | effect on preformed biofilms ([1]; further 48 h): significant reduction in biofilm formation | biofilm formation in the presence of Inh2-B1 ([2]; 48 h): significantly decreased formation of biofilms | effect on preformed biofilms ([2]; further 48 h): significant reduction in biofilm formation | MBC (S. aureus MW2 wild-type; Staphylococcus aureus, MW2WILDTYPE, MW2, read-out: Minimum bactericidal concentration (MBC)): 100 µM | concentration up to which growth of MW2 was seen (S. aureus MW2 wild-type; further analysis): 90 µM | concentration of wells with ≥1 CFU of wild-type MW2 (S. aureus MW2 wild-type; checkerboard): ≤ 50 µM | expression of cell wall hydrolase-encoding genes [3]: down-regulation of cell wall hydrolase-encoding genes

Source: US11318141B2, “Methods and compositions related to STK1-targeted small molecules as antibiotic resistance breakers” (Ohio State Innovation Foundation, priority 2017, dated 2022)
